Values after ≈ are worked out from the molar mass of the structure shown.
Assays:
Format in all cases: functional
Staphylococcus aureus = assay: Antibacterial activity against Staphylococcus aureus by two-fold dilution method; conditions: for MIC: Staphylococcus aureus
Escherichia coli = assay: Antibacterial activity against Escherichia coli by two-fold dilution method
Pseudomonas aeruginosa = assay: Antibacterial activity against Pseudomonas aeruginosa by two-fold dilution method
Cutibacterium acnes = assay: Antibacterial activity against Propionibacterium acnes by two-fold dilution method
Candida albicans = assay: […] activity against Candida albicans by two-fold dilution method; conditions: for MIC: Candida albicans

| SMILES | -logMIC (Staphylococcus aureus) | MIC (Staphylococcus aureus) [µg/mL] | MIC (Escherichia coli) [µg/mL] | MIC (Pseudomonas aeruginosa) [µg/mL] | MIC (Cutibacterium acnes) [µg/mL] | -logMIC (Candida albicans) | MIC (Candida albicans) [µg/mL] |
| --- | --- | --- | --- | --- | --- | --- | --- |
| COC(=O)CCC[C@@H]1[C@H]2CCCN3CCC[C@@H](CN1C(=O)c1cc4ccc(Cl)cc4n1Cc1ccccc1[N+](=O)[O-])[C@@H]23 | 0.876 | 0.133 (≈ 0.224 µM) | 0.694 (≈ 1.17 µM) | 0.852 (≈ 1.44 µM) | 2.86 (≈ 4.82 µM) | -1.05 | 11.1 (≈ 18.8 µM) |
| COC(=O)CCC[C@@H]1[C@H]2CCCN3CCC[C@@H](CN1C(=O)c1cc4ccc(Cl)cc4n1Cc1cccc(C)c1)[C@@H]23 | 0.567 | 0.271 (≈ 0.482 µM) | 1.3 (≈ 2.31 µM) | 0.536 (≈ 0.953 µM) | 0.305 (≈ 0.543 µM) | -1.06 | 11.6 (≈ 20.6 µM) |
| COC(=O)CCC[C@@H]1[C@H]2CCCN3CCC[C@@H](CN1C(=O)c1cc4ccc(Cl)cc4n1Cc1ccc(C(F)(F)F)cc1)[C@@H]23 | 1.678 | 0.021 (≈ 0.0341 µM) | 0.379 (≈ 0.615 µM) | 0.092 (≈ 0.149 µM) | 0.03 (≈ 0.0487 µM) | -0.448 | 2.81 (≈ 4.55 µM) |
| COC(=O)CCC[C@@H]1[C@H]2CCCN3CCC[C@@H](CN1C(=O)c1cc4ccc(Cl)cc4[nH]1)[C@@H]23 | 0.207 | 1.61 (≈ 3.52 µM) | 2.55 (≈ 5.57 µM) | 0.661 (≈ 1.44 µM) | 0.636 (≈ 1.39 µM) | -0.819 | 6.59 (≈ 14.4 µM) |
| COC(=O)CCC[C@@H]1[C@H]2CCCN3CCC[C@@H](CN1C(=O)c1cc4ccc(Cl)cc4n1Cc1c(Cl)cccc1Cl)[C@@H]23 | 0.785 | 0.164 (≈ 0.266 µM) | 0.82 (≈ 1.33 µM) | 0.207 (≈ 0.335 µM) | 0.203 (≈ 0.329 µM) | -0.833 | 6.81 (≈ 11 µM) |
| COC(=O)CCC[C@@H]1[C@H]2CCCN3CCC[C@@H](CN1C(=O)c1cc4ccc(Cl)cc4n1Cc1cc(C(C)(C)C)cc(C(C)(C)C)c1)[C@@H]23 | 1.032 | 0.093 (≈ 0.141 µM) | 1.49 (≈ 2.25 µM) | 0.466 (≈ 0.706 µM) | 0.29 (≈ 0.439 µM) | -0.955 | 9.02 (≈ 13.7 µM) |
| COC(=O)CCC[C@@H]1[C@H]2CCCN3CCC[C@@H](CN1C(=O)c1cc4ccc(Cl)cc4n1Cc1ccc(F)cc1Br)[C@@H]23 | 0.458 | 0.348 (≈ 0.54 µM) | 1.04 (≈ 1.62 µM) | 0.445 (≈ 0.69 µM) | 0.351 (≈ 0.544 µM) | -0.942 | 8.74 (≈ 13.6 µM) |
| COC(=O)CCC[C@@H]1[C@H]2CCCN3CCC[C@@H](CN1C(=O)c1cc4ccc(Cl)cc4n1Cc1ccccc1C#N)[C@@H]23 | 0.319 | 0.48 (≈ 0.837 µM) | 0.823 (≈ 1.44 µM) | 0.693 (≈ 1.21 µM) | 0.848 (≈ 1.48 µM) | -1.05 | 11.2 (≈ 19.6 µM) |
| COC(=O)CCC[C@@H]1[C@H]2CCCN3CCC[C@@H](CN1C(=O)c1cc4ccc(Cl)cc4n1Cc1ccccc1C)[C@@H]23 | 1.201 | 0.063 (≈ 0.112 µM) | 1.1 (≈ 1.97 µM) | 0.72 (≈ 1.28 µM) | 0.271 (≈ 0.482 µM) | -1.29 | 19.6 (≈ 34.8 µM) |
| COC(=O)CCC[C@@H]1[C@H]2CCCN3CCC[C@@H](CN1C(=O)c1cc4ccc(Cl)cc4n1Cc1cccc([N+](=O)[O-])c1)[C@@H]23 | 1.509 | 0.031 (≈ 0.0523 µM) | 0.954 (≈ 1.61 µM) | 0.387 (≈ 0.652 µM) | 0.248 (≈ 0.418 µM) | -1.07 | 11.7 (≈ 19.7 µM) |
| COC(=O)CCC[C@@H]1[C@H]2CCCN3CCC[C@@H](CN1C(=O)c1cc4ccc(Cl)cc4n1Cc1ccc(C(C)(C)C)cc1)[C@@H]23 | 1.071 | 0.085 (≈ 0.141 µM) | 1.22 (≈ 2.02 µM) | 0.654 (≈ 1.08 µM) | 1.33 (≈ 2.19 µM) | -1.26 | 18.1 (≈ 29.9 µM) |
| OC(Cn1cncn1)(Cn1cncn1)c1ccc(F)cc1F [FLUCONAZOLE] | – | – | – | – | – | – | 4.85 (≈ 15.8 µM) |
| COC(=O)CCC[C@@H]1[C@H]2CCCN3CCC[C@@H](CN1C(=O)c1cc4ccc(Cl)cc4n1Cc1ccc4ccccc4c1)[C@@H]23 | 1.187 | 0.065 (≈ 0.109 µM) | 0.892 (≈ 1.49 µM) | 0.42 (≈ 0.702 µM) | 0.175 (≈ 0.293 µM) | -1.09 | 12.2 (≈ 20.4 µM) |
| COC(=O)CCC[C@@H]1[C@H]2CCCN3CCC[C@@H](CN1C(=O)c1cc4ccc(Cl)cc4n1Cc1ccc([N+](=O)[O-])cc1)[C@@H]23 | 0.745 | 0.18 (≈ 0.303 µM) | 0.523 (≈ 0.882 µM) | 0.28 (≈ 0.472 µM) | 0.053 (≈ 0.0894 µM) | -0.846 | 7.01 (≈ 11.8 µM) |
| COC(=O)CCC[C@@H]1[C@H]2CCCN3CCC[C@@H](CN1C(=O)c1cc4ccc(Cl)cc4n1Cc1ccc(Br)cc1)[C@@H]23 | 0.06 | 1.15 (≈ 1.83 µM) | 0.762 (≈ 1.22 µM) | 0.467 (≈ 0.745 µM) | 0.121 (≈ 0.193 µM) | -1.14 | 13.7 (≈ 21.9 µM) |
| COC(=O)CCC[C@@H]1[C@H]2CCCN3CCC[C@@H](CN1C(=O)c1cc4ccc(Cl)cc4n1Cc1cccc4ccccc14)[C@@H]23 | 0.519 | 0.303 (≈ 0.507 µM) | 0.649 (≈ 1.08 µM) | 0.534 (≈ 0.893 µM) | 0.14 (≈ 0.234 µM) | -1.08 | 12.1 (≈ 20.2 µM) |
| O=C1CCC[C@@H]2[C@H]3CCCN4CCC[C@@H](CN12)[C@@H]34 [MATRINE] | – | 7.43 (≈ 29.9 µM) | 5.46 (≈ 22 µM) | 6.73 (≈ 27.1 µM) | 16 (≈ 64.3 µM) | – | 8 (≈ 32.2 µM) |
| COC(=O)CCC[C@@H]1[C@H]2CCCN3CCC[C@@H](CN1C(=O)c1cc4ccc(Cl)cc4n1Cc1ccc(F)c(F)c1)[C@@H]23 | 0.37 | 0.427 (≈ 0.731 µM) | 0.483 (≈ 0.827 µM) | 0.5 (≈ 0.856 µM) | 0.12 (≈ 0.205 µM) | -0.98 | 9.55 (≈ 16.3 µM) |
| COC(=O)CCC[C@@H]1[C@H]2CCCN3CCC[C@@H](CN1C(=O)c1cc4ccccc4[nH]1)[C@@H]23 | -0.991 | 9.79 (≈ 23.1 µM) | 2.97 (≈ 7.01 µM) | 1.08 (≈ 2.56 µM) | 1.23 (≈ 2.91 µM) | -1.16 | 14.3 (≈ 33.7 µM) |
| NC[C@H]1O[C@H](O[C@H]2[C@H](O)[C@@H](O[C@H]3O[C@H](CO)[C@@H](O)[C@H](N)[C@H]3O)[C@H](N)C[C@@H]2N)[C@H](O)[C@@H](O)[C@@H]1O.O=S(=O)(O)O [KANAMYCIN SULFATE] | – | – | 0.052 | – | – | – | – |
| COC(=O)CCC[C@@H]1[C@H]2CCCN3CCC[C@@H](CN1C(=O)c1cc4ccc(Cl)cc4n1Cc1cccc(OCc4ccccc4)c1)[C@@H]23 | 0.932 | 0.117 (≈ 0.179 µM) | 0.894 (≈ 1.37 µM) | 0.975 (≈ 1.49 µM) | 0.093 (≈ 0.142 µM) | -0.991 | 9.8 (≈ 15 µM) |
| COC(=O)CCC[C@@H]1[C@H]2CCCN3CCC[C@@H](CN1C(=O)c1cc4ccc(Cl)cc4n1Cc1cc(C#N)ccc1F)[C@@H]23 | 0.587 | 3.86 (≈ 6.54 µM) | 0.644 (≈ 1.09 µM) | 0.658 (≈ 1.11 µM) | 0.2 (≈ 0.338 µM) | -1.02 | 10.6 (≈ 17.9 µM) |
| COC(=O)CCC[C@@H]1[C@H]2CCCN3CCC[C@@H](CN1C(=O)c1cc4ccc(Cl)cc4n1Cc1ccccc1C(C)(C)C)[C@@H]23 | 0.75 | 0.178 (≈ 0.295 µM) | 1.14 (≈ 1.88 µM) | 0.926 (≈ 1.53 µM) | 0.354 (≈ 0.586 µM) | -0.898 | 7.9 (≈ 13.1 µM) |
| COC(=O)CCC[C@@H]1[C@H]2CCCN3CCC[C@@H](CN1C(=O)c1cc4ccc(Cl)cc4n1Cc1ccc(OC)cc1)[C@@H]23 | 0.451 | 0.354 (≈ 0.612 µM) | 0.775 (≈ 1.34 µM) | 0.627 (≈ 1.08 µM) | 0.404 (≈ 0.699 µM) | -0.905 | 8.04 (≈ 13.9 µM) |
| CC1(C)S[C@@H]2[C@H](NC(=O)Cc3ccccc3)C(=O)N2[C@H]1C(=O)[O-].[Na+] [PENICILLIN G SODIUM] | – | 0.037 | – | – | – | – | – |
| CC(C)(O/N=C(\C(=O)N[C@@H]1C(=O)N2C(C(=O)[O-])=C(C[n+]3ccccc3)CS[C@H]12)c1csc(N)n1)C(=O)O [CEFTAZIDIME] | – | – | – | 0.042 (≈ 0.0768 µM) | – | – | – |
| C[C@H]1c2cccc(O)c2C(=O)C2=C(O)[C@]3(O)C(=O)C(C(N)=O)=C(O)[C@@H](N(C)C)[C@@H]3[C@@H](O)[C@@H]21.Cl [DOXYCYCLINE HYDROCHLORIDE] | – | – | – | – | 0.023 | – | – |
